Key:
[1] = test system: recombinant NL4-3 virus (Renilla luciferase) in MT-2 cells; test: HIV cell culture assay (antiviral activity, luciferase readout); format: cell-based; settings: Renilla, NL43
Summary of the method: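 MT-2 cells were infected with recombinant NL4-3 virus carrying Renilla luciferase in place of part of nef. Cells were cultured 4–5 days with serially diluted compound, and luciferase was measured with a live-cell substrate. EC50 was calculated from the median effect equation.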

[2] = Compound cytotoxicity, XTT-based colorimetric assay; format: cell-based; settings: human; uninfected MT2 cells, day 4, XTT
Summary of the method: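 Run under the antiviral-assay protocol but without virus. Viability was read on day 4 and CC50 values were derived from the readout.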

| SMILES | EC50 [1] | CC50 at 4 days [2] |
| --- | --- | --- |
| COc1ncc(-c2ccc3c(=O)n(-c4ccc(Cl)c5c(NS(C)(=O)=O)nn(CC(F)F)c45)c([C@H](Cc4cc(F)cc(F)c4)NC(=O)Cn4nc(C(F)F)c5c4C(F)(F)[C@@H]4C[C@H]54)nc3c2)cn1 (atropisomer, axis not shown) [Example 125, N-[(1S)-1-{3-[4-chloro-1-(2,2-difluoroethyl)-3-methanesulfonamido-1H-indazol-7-yl]-7-(2-methoxypyrimidin-5-yl)-4-oxo-3,4-dihydroquinazolin-2-yl}-2-(3,5-difluorophenyl)ethyl]-2-[(2S,4R)-9-(difluoromethyl)-5,5-difluoro-7,8-diazatricyclo[4.3.0.0^2,^4]nona-1(6),8-dien-7-yl]acetamide] | 0.06 nM | > 500 nM |
| Cc1nc(-c2ccc3c(=O)n(-c4ccc(Cl)c5c(NS(C)(=O)=O)nn(C)c45)c([C@H](Cc4cc(F)cc(F)c4)NC(=O)Cn4nc(C(F)F)c5c4C(F)(F)[C@@H]4C[C@H]54)nc3c2)cc(C(C)C)n1 (atropisomer, axis not shown; (P)) [Example 66, N—((S)-1-((3P)-3-(4-chloro-1-methyl-3-(methylsulfonamido)-1H-indazol-7-yl)-7-(6-isopropyl-2-methylpyrimidin-4-yl)-4-oxo-3,4-dihydroquinazolin-2-yl)-2-(3,5-difluorophenyl)ethyl)-2-((3bS,4aR)-3-(difluoromethyl)-5,5-difluoro-3b,4,4a,5-tetrahydro-1H-cyclopropa[3,4]cyclopenta[1,2-c]pyrazol-1-yl)acetamide] | 0.15 nM | > 500 nM |
| CS(=O)(=O)Nc1nn(CC(F)F)c2c(-n3c([C@H](Cc4cc(F)cc(F)c4)NC(=O)Cn4nc(C(F)F)c5c4C(F)(F)[C@@H]4C[C@H]54)nc4cc(-c5nccc(C(F)F)n5)ccc4c3=O)ccc(Cl)c12 (atropisomer, axis not shown) [Example 132] | 0.06 nM | > 500 nM |
| COc1cc(C)nc(-c2ccc3c(=O)n(-c4ccc(Cl)c5c(NS(C)(=O)=O)nn(C)c45)c([C@H](Cc4cc(F)cc(F)c4)NC(=O)Cn4nc(C(F)F)c5c4C(F)(F)[C@@H]4C[C@H]54)nc3c2)c1 (atropisomer, axis not shown; (P)) [Example 57, N—((S)-1-((3P)-3-(4-chloro-1-methyl-3-(methylsulfonamido)-1H-indazol-7-yl)-7-(4-methoxy-6-methylpyridin-2-yl)-4-oxo-3,4-dihydroquinazolin-2-yl)-2-(3,5-difluorophenyl)ethyl)-2-((3bS,4aR)-3-(difluoromethyl)-5,5-difluoro-3b,4,4a,5-tetrahydro-1H-cyclopropa[3,4]cyclopenta[1,2-c]pyrazol-1-yl)acetamide] | 0.15 nM | > 500 nM |
| Cn1nc(NS(C)(=O)=O)c2c(Cl)ccc(-n3c([C@H](Cc4cc(F)cc(F)c4)NC(=O)Cn4nc(C(F)F)c5c4C(F)(F)[C@@H]4C[C@H]54)nc4cc(-c5cccc(C(F)F)n5)ccc4c3=O)c21 (atropisomer, axis not shown) [Example 117] | 0.069 nM | > 500 nM |
| CCc1cc(-c2ccc3c(=O)n(-c4ccc(Cl)c5c(NS(C)(=O)=O)nn(C)c45)c([C@H](Cc4cc(F)cc(F)c4)NC(=O)Cn4nc(C(F)F)c5c4C(F)(F)[C@@H]4C[C@H]54)nc3c2)nc(CC)n1 (atropisomer, axis not shown; (P)) [Example 68, N—((S)-1-((3P)-3-(4-chloro-1-methyl-3-(methylsulfonamido)-1H-indazol-7-yl)-7-(2,6-diethylpyrimidin-4-yl)-4-oxo-3,4-dihydroquinazolin-2-yl)-2-(3,5-difluorophenyl)ethyl)-2-((3bS,4aR)-3-(difluoromethyl)-5,5-difluoro-3b,4,4a,5-tetrahydro-1H-cyclopropa[3,4]cyclopenta[1,2-c]pyrazol-1-yl)acetamide] | 0.18 nM | > 500 nM |
| CCC(C)c1nccc(-c2ccc3c(=O)n(-c4ccc(Cl)c5c(NS(C)(=O)=O)nn(C)c45)c([C@H](Cc4cc(F)cc(F)c4)NC(=O)Cn4nc(C(F)F)c5c4C(F)(F)[C@@H]4C[C@H]54)nc3c2)n1 (stereo partly drawn) [Example 70, N-((1S)-1-(7-(2-(sec-butyl)pyrimidin-4-yl)-(3P)-3-(4-chloro-1-methyl-3-(methylsulfonamido)-1H-indazol-7-yl)-4-oxo-3,4-dihydroquinazolin-2-yl)-2-(3,5-difluorophenyl)ethyl)-2-((3bS,4aR)-3-(difluoromethyl)-5,5-difluoro-3b,4,4a,5-tetrahydro-1H-cyclopropa[3,4]cyclopenta[1,2-c]pyrazol-1-yl)acetamide] | 0.26 nM | > 500 nM |
| Cc1nnc(-c2ccc3c(=O)n(-c4ccc(Cl)c5c(NS(C)(=O)=O)nn(C)c45)c([C@H](Cc4cc(F)cc(F)c4)NC(=O)Cn4nc(C(F)F)c5c4C(F)(F)[C@@H]4C[C@H]54)nc3c2)nc1C (atropisomer, axis not shown; (P)) [Example 55, N—((S)-1-((3P)-3-(4-chloro-1-methyl-3-(methylsulfonamido)-1H-indazol-7-yl)-7-(5,6-dimethyl-1,2,4-triazin-3-yl)-4-oxo-3,4-dihydroquinazolin-2-yl)-2-(3,5-difluorophenyl)ethyl)-2-((3bS,4aR)-3-(difluoromethyl)-5,5-difluoro-3b,4,4a,5-tetrahydro-1H-cyclopropa[3,4]cyclopenta[1,2-c]pyrazol-1-yl)acetamide] | 0.032 nM | > 500 nM |
| CN(c1ccc(-c2ccc3c(=O)n(-c4ccc(Cl)c5c(NS(=O)(=O)C6CC6)nn(CC(F)F)c45)c([C@H](Cc4cc(F)cc(F)c4)NC(=O)Cn4nc(C(F)F)c5c4C(F)(F)[C@@H]4C[C@H]54)nc3c2)cc1)S(C)(=O)=O (atropisomer, axis not shown) [Example 147, N-[(1S)-1-{3-[4-chloro-3-cyclopropanesulfonamido-1-(2,2-difluoroethyl)-1H-indazol-7-yl]-7-[4-(N-methylmethanesulfonamido)phenyl]-4-oxo-3,4-dihydroquinazolin-2-yl}-2-(3,5-difluorophenyl)ethyl]-2-[(2S,4R)-9-(difluoromethyl)-5,5-difluoro-7,8-diazatricyclo[4.3.0.0^2,^4]nona-1(6),8-dien-7-yl]acetamide] | 0.34 nM | > 500 nM |
| CS(=O)(=O)Nc1nn(CC(F)(F)F)c2c(-n3c([C@H](Cc4cc(F)cc(F)c4)NC(=O)Cn4nc(C(F)F)c5c4C(F)(F)[C@@H]4C[C@H]54)nc4cc(-c5cccnn5)ccc4c3=O)ccc(Cl)c12 (atropisomer, axis not shown) [Example 107, N-[(1S)-1-{3-[4-chloro-3-methanesulfonamido-1-(2,2,2-trifluoroethyl)-1H-indazol-7-yl]-4-oxo-7-(pyridazin-3-yl)-3,4-dihydroquinazolin-2-yl}-2-(3,5-difluoropheny)ethyl]-2-[(2S,4R)-9-(difluoromethyl)-5,5-difluoro-7,8-diazatricyclo[4.3.0.0^2,^4]nona-1(6),8-dien-7-yl]acetamide] | 0.048 nM | > 500 nM |
| Cn1nc(NS(C)(=O)=O)c2c(Cl)ccc(-n3c([C@H](Cc4cc(F)cc(F)c4)NC(=O)Cn4nc(C(F)F)c5c4C(F)(F)[C@@H]4C[C@H]54)nc4cc(-c5nccc(C(F)(F)F)n5)ccc4c3=O)c21 (atropisomer, axis not shown; (P)) [Example 3, N—((S)-1-((3P)-3-(4-chloro-1-methyl-3-(methylsulfonamido)-1H-indazol-7-yl)-4-oxo-7-(4-(trifluoromethyl)pyrimidin-2-yl)-3,4-dihydroquinazolin-2-yl)-2-(3,5-difluorophenyl)ethyl)-2-((3bS,4aR)-3-(difluoromethyl)-5,5-difluoro-3b,4,4a,5-tetrahydro-1H-cyclopropa[3,4]cyclopenta[1,2-c]pyrazol-1-yl)acetamide] | 0.1 nM | > 500 nM |
| Cn1nc(NS(C)(=O)=O)c2c(Cl)ccc(-n3c([C@H](Cc4cc(F)cc(F)c4)NC(=O)Cn4nc(C(F)F)c5c4C(F)(F)[C@@H]4C[C@H]54)nc4cc(-c5nccc(C(C)(C)C)n5)ccc4c3=O)c21 (atropisomer, axis not shown; (P)) [Example 47, N—((S)-1-(7-(4-(tert-butyl)pyrimidin-2-yl)-(3P)-3-(4-chloro-1-methyl-3-(methylsulfonamido)-1H-indazol-7-yl)-4-oxo-3,4-dihydroquinazolin-2-yl)-2-(3,5-difluorophenyl)ethyl)-2-((3bS,4aR)-3-(difluoromethyl)-5,5-difluoro-3b,4,4a,5-tetrahydro-1H-cyclopropa[3,4]cyclopenta[1,2-c]pyrazol-1-yl)acetamide] | 0.19 nM | > 500 nM |
| COc1ncc(-c2ccc3c(=O)n(-c4ccc(Cl)c5c(NS(C)(=O)=O)nn(CC(F)(F)F)c45)c([C@H](Cc4cc(F)cc(F)c4)NC(=O)Cn4nc(C(F)F)c5c4C(F)(F)[C@@H]4C[C@H]54)nc3c2)cn1 (atropisomer, axis not shown) [Example 116, N-[(1S)-1-{3-[4-chloro-3-methanesulfonamido-1-(2,2,2-trifluoroethyl)-1H-indazol-7-yl]-7-(2-methoxypyrimidin-5-yl)-4-oxo-3,4-dihydroquinazolin-2-yl}-2-(3,5-difluorophenyl)ethyl]-2-[(2S,4R)-9-(difluoromethyl)-5,5-difluoro-7,8-diazatricyclo[4.3.0.0^2,^4]nona-1(6),8-dien-7-yl]acetamide] | 0.072 nM | > 500 nM |
